From PMC5830615 (Scientific Reports, 2018)

What was measured:
[1] = test system: soluble adenylyl cyclase (sAC); test: FRET assay of soluble adenylyl cyclase activity in HEK293-sAC cells transduced with H188; format: cell-based
Procedure: These actions of Rp-8-Br-cAMPS-pAB were not reproduced by the negative control 4-acetoxybenzy alcohol (4-Abn-OH) that lacks the cAMP moiety (Fig. 3e1,e2)[36].
HEK293-H188-C24 cells stably expressing H188 were plated at 80% confluence on 96-well clear-bottom assay plates (Costar 3904, Corning, NY) coated with rat tail collagen (Collaborative Biomedical Products, Bedford, MA). HEK293 cells stably expressing select GPCRs were transduced for 16 hours with H188 virus at a density of ca. 60,000 cells/well under conditions in which the multiplicity of infection (m.o.i.) was equivalent to 25 viral particles per cell. For all assays, the culture media was then removed and replaced by 200 μl/well of a standard extracellular saline (SES) solution supplemented with 11 mM glucose and 0.1% BSA[31],[34]–[36]. The composition of the SES was (in mM): 138 NaCl, 5.6 KCl, 2.6 CaCl2, 1.2 MgCl2, 11.1 glucose, and 10 Hepes (295 mOsmol, pH 7.4). Real-time kinetic assays of FRET were performed using a FlexStation 3 microplate reader equipped with monochromators (Molecular Devices, Sunnyvale, CA). Excitation light was delivered at 435/9 nm (455 nm cut-off), and emitted light was detected at 485/15 nm (CFP) or 535/15 nm (YFP)[31],[34]–[36]. […] The 485/535 emission ratio was calculated for each well and the mean +/− s.d. values for 12 wells were averaged. […]

wild-type HEK293 cells = test: FRET cAMP assay in wild-type HEK293 cells transduced with H188 (negative control); format: cell-based, human; settings: WT HEK293 lacking recombinant receptors, H188 virus; IBMX at 50 μM
Procedure: (§1) HEK293-H188-C24 cells stably expressing H188 were plated at 80% confluence on 96-well clear-bottom assay plates (Costar 3904, Corning, NY) coated with rat tail collagen (Collaborative Biomedical Products, Bedford, MA). HEK293 cells stably expressing select GPCRs were transduced for 16 hours with H188 virus at a density of ca. 60,000 cells/well under conditions in which the multiplicity of infection (m.o.i.) was equivalent to 25 viral particles per cell. For all assays, the culture media was then removed and replaced by 200 μl/well of a standard extracellular saline (SES) solution supplemented with 11 mM glucose and 0.1% BSA[31],[34]–[36]. The composition of the SES was (in mM): 138 NaCl, 5.6 KCl, 2.6 CaCl2, 1.2 MgCl2, 11.1 glucose, and 10 Hepes (295 mOsmol, pH 7.4). Real-time kinetic assays of FRET were performed using a FlexStation 3 microplate reader equipped with monochromators (Molecular Devices, Sunnyvale, CA). Excitation light was delivered at 435/9 nm (455 nm cut-off), and emitted light was detected at 485/15 nm (CFP) or 535/15 nm (YFP)[31],[34]–[36]. The emission intensities were the averages of 12 excitation flashes for each time point per well.

human GLP-1R = test: FRET cAMP assay in HEK293-GLP-1R cells (stable human GLP-1R) virally transduced with H188; format: cell-based; settings: HEK293-GLP-1R cells transduced with H188
Procedure: as §1

[2] = test system: H188 (Epac1-based cAMP biosensor); test: FRET response of biosensor H188 to cAMP analogs and Epac inhibitors in HEK293-H188-C24 cells; format: cell-based
Source text: (§2) H188 contains the cAMP sensor Epac1 in which the full-length protein is truncated to remove the Disheveled, Egl-10, and Pleckstrin (DEP) membrane-targeting domain so that its expression is confined largely to the cytoplasm (Fig. 2a,b)[30]. T781A and F782A mutations introduced within the CDC25 homology domain disrupt guanine nucleotide exchange factor (GEF) activity so that binding of cAMP to H188 is not linked to downstream signaling events mediated by the Epac1 effector protein Rap1 GTPase (Fig. 2a)[30]. In H188 the Epac1 backbone is flanked by an mTurquoise2Δ FRET donor chromophore at the N-terminus, and tandem cp173 Venus-Venus FRET acceptor chromophores at the C-terminus (Fig. 2a). Binding of cAMP reduces FRET so that when exciting with 440 nm light, there is an increase of 485 nm (mTuquoise2Δ) and a decrease of 535 nm (cp173 Venus-Venus) emission fluorescence. This ΔFRET is measured as an increase of the 485/535 nm FRET ratio.
HEK293-H188-C24 cells stably expressing H188 were plated at 80% confluence on 96-well clear-bottom assay plates (Costar 3904, Corning, NY) coated with rat tail collagen (Collaborative Biomedical Products, Bedford, MA). HEK293 cells stably expressing select GPCRs were transduced for 16 hours with H188 virus at a density of ca. 60,000 cells/well under conditions in which the multiplicity of infection (m.o.i.) was equivalent to 25 viral particles per cell. For all assays, the culture media was then removed and replaced by 200 μl/well of a standard extracellular saline (SES) solution supplemented with 11 mM glucose and 0.1% BSA[31],[34]–[36]. The composition of the SES was (in mM): 138 NaCl, 5.6 KCl, 2.6 CaCl2, 1.2 MgCl2, 11.1 glucose, and 10 Hepes (295 mOsmol, pH 7.4). Real-time kinetic assays of FRET were performed using a FlexStation 3 microplate reader equipped with monochromators (Molecular Devices, Sunnyvale, CA). Excitation light was delivered at 435/9 nm (455 nm cut-off), and emitted light was detected at 485/15 nm (CFP) or 535/15 nm (YFP)[31],[34]–[36]. The emission intensities were the averages of 12 excitation flashes for each time point per well. Test solutions dissolved in SES were placed in V-bottom 96-well plates (Greiner Bio-One, Monroe, NC), and an automated pipetting procedure was used to transfer 50 μl of each test solution to each well of the assay plate containing monolayers of these cells. The 485/535 emission ratio was calculated for each well and the mean +/− s.d. values for 12 wells were averaged. To facilitate comparisons amongst different experiments, these FRET ratio values were normalized using baseline subtraction so that a y-axis value of 1 corresponds to the initial baseline FRET ratio, whereas a value of 2 corresponds to a doubling of the FRET ratio. The time course of the ΔFRET ratio was plotted after exporting data to Origin 8.0 (OriginLab, Northampton, MA). Origin 8.0 was also used for generation of Hill plots describing dose-response relationships.

[3] = test system: HEK293-H188-C24 cells (cAMP production); test: High-throughput FRET assay of cAMP, forskolin in HEK293-H188-C24 cells; format: cell-based; settings: Homo sapiens; HEK293-H188-C24 monolayers, 96-well microplate reader, 485/535 nm FRET ratio; read-out: EC50 of forskolin for H188 ΔFRET (sensitivity)
Source text: as §2
HEK293-H188-C24 cells stably expressing H188 were plated at 80% confluence on 96-well clear-bottom assay plates (Costar 3904, Corning, NY) coated with rat tail collagen (Collaborative Biomedical Products, Bedford, MA). […] Real-time kinetic assays of FRET were performed using a FlexStation 3 microplate reader equipped with monochromators (Molecular Devices, Sunnyvale, CA). […]

rat GIP receptor = test: FRET cAMP assay in HEK293 cells stably expressing GIP receptor, transduced with H188; format: cell-based; settings: GIP 3 nM
Procedure: as §1

rat glucagon receptor = test: FRET cAMP assay in HEK293 cells stably expressing glucagon receptor, transduced with H188; format: cell-based; settings: Glucagon 3 nM
Procedure: as §1

CC(C)Cn1c(=O)n(C)c(=O)c2[nH]cnc21 [IBMX, isobutylmethylxanthine]
Effect on levels of cAMP in HEK293-sAC cells ([1]; IBMX 50 μM, H188 by viral transduction): raised levels of cAMP | Effect on levels of cAMP in wild-type HEK293 cells (wild-type HEK293 cells): failed to raise levels of cAMP | Effect on the cAMP-elevating action of GLP-1 (human GLP-1R): potentiated the action of GLP-1

Nc1nc(Cl)cc(N(Cc2ccsc2)C2CC2)n1 [LRE1]
Effect on IBMX-induced rise of cAMP in HEK293-sAC cells ([1]; LRE1 50 μM versus IBMX 50 μM): blocked

Cl.c1ccc(C2CCCC2NC2=NCCCCCCCCCCC2)cc1 (stereo not shown) [MDL-12,330 A]
Effect on the cAMP-elevating action of GLP-1 (human GLP-1R): suppressed the action of GLP-1

CC(=O)Oc1ccc(CSP2(=O)OC[C@H]3O[C@@H](n4c(Br)nc5c(N)ncnc54)[C@H](O)[C@@H]3O2)cc1 (stereo partly shown) [Rp-8-Br-cAMPS-pAB]
Effect on baseline FRET ratio when administered alone [2]: weak partial agonist effect | Effect on ΔFRET measured in response to forskolin [2]: inhibited the ΔFRET

C=C[C@@]1(C)CC(=O)[C@]2(O)[C@@]3(C)[C@@H](O)CCC(C)(C)[C@@H]3[C@H](O)[C@H](OC(C)=O)[C@@]2(C)O1 [forskolin]
EC50 [3]: 500 nM

gastric inhibitory polypeptide (YAEGTFISDYSIAMDKIHQQDFVNWLLAQKGKKNDWKHNITQ) [GIP, hormone]
Effect on cAMP at GIP receptor, 3 nM (rat GIP receptor): did raise levels of cAMP

glucagon
Effect on cAMP at glucagon receptor, 3 nM (rat glucagon receptor): did raise levels of cAMP
